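The compound was tested at five concentrations on cells cultured in 96-well plates, with a 48-hour exposure period. Here, GI50 denotes the concentration required for 50% inhibition of growth. Definition used: TGI = concentration required for complete inhibition of growth.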
Assays:
Assay in all cases: NCI-60 cell line screen, 48 h
[1] = tested on: NCI-H460 lung
[2] = tested on: HOP-62 NSCLC
[3] = tested on: CAKI-1 renal
[4] = tested on: HOP-92 NSCLC
[5] = tested on: COLO 205 colon
[6] = tested on: SF-539 CNS
[7] = tested on: MOLT-4 leukemia
[8] = tested on: HS 578T breast
[9] = tested on: U251 CNS
[10] = tested on: MDA-MB-231 breast
[11] = tested on: HCT-116 colon
[12] = tested on: M14 melanoma
[13] = tested on: PC-3 prostate
[14] = tested on: DU-145 prostate
[15] = tested on: OVCAR-5 ovarian
[16] = tested on: OVCAR-3 ovarian
[17] = tested on: SF-295 CNS
[18] = tested on: LOX IMVI melanoma
[19] = tested on: HL-60(TB) leukemia
[20] = tested on: SK-OV-3 ovarian
[21] = tested on: T-47D breast
[22] = tested on: OVCAR-8 ovarian
[23] = tested on: SNB-19 CNS
[24] = tested on: SK-MEL-28 melanoma
[25] = tested on: MALME-3M melanoma
[26] = tested on: 786-0 renal
[27] = tested on: KM12 colon
[28] = tested on: OVCAR-4 ovarian
[29] = tested on: A549 NSCLC
[30] = tested on: CCRF-CEM leukemia
[31] = tested on: HCC-2998 colon
[32] = tested on: IGROV1 ovarian
[33] = tested on: SK-MEL-2 melanoma
[34] = tested on: SF-268 CNS
[35] = tested on: SN12C renal
[36] = tested on: HCT-15 colon
[37] = tested on: NCI-H23 lung
[38] = tested on: RXF 393 renal
[39] = tested on: SNB-75 CNS
[40] = tested on: UO-31 renal
[41] = tested on: NCI/ADR-RES ovarian
[42] = tested on: MCF7 breast
[43] = tested on: SR leukemia
[44] = tested on: ACHN renal
[45] = tested on: A498 renal
[46] = tested on: HT29 colon
[47] = tested on: MDA-MB-435
[48] = tested on: K-562 leukemia
[49] = tested on: SK-MEL-5 melanoma
[50] = tested on: NCI-H226 lung
[51] = tested on: UACC-62 melanoma
[52] = tested on: SW-620 colon
[53] = tested on: BT-549 breast
[54] = tested on: RPMI-8226 leukemia
[55] = tested on: UACC-257 melanoma
[56] = tested on: NCI-H522 lung

O=C1Nc2ccccc2/C1=C/C(=N/c1nnc(-c2ccc(Cl)cc2)s1)c1ccccc1
GI50 [1]: 5.95 µM
TGI [1]: 21.9 µM
GI50 [2]: 7.16 µM
TGI [2]: 21.5 µM
GI50 [3]: 1.43 µM
TGI [3]: 4.92 µM
GI50 [4]: 0.969 µM
TGI [4]: 3.03 µM
GI50 [5]: 1.77 µM
TGI [5]: 3.4 µM
GI50 [6]: 1.81 µM
TGI [6]: 4.08 µM
GI50 [7]: 2.27 µM
TGI [7]: 6.01 µM
GI50 [8]: 3.25 µM
TGI [8]: 16 µM
GI50 [9]: 4.04 µM
TGI [9]: 15.5 µM
GI50 [10]: 2.14 µM
TGI [10]: 6.21 µM
GI50 [11]: 1.06 µM
TGI [11]: 2.38 µM
GI50 [12]: 2.37 µM
TGI [12]: 6.28 µM
GI50 [13]: 1.93 µM
TGI [13]: 5.88 µM
GI50 [14]: 2.52 µM
TGI [14]: 6.9 µM
GI50 [15]: 1.81 µM
TGI [15]: 4.86 µM
GI50 [16]: 1.26 µM
TGI [16]: 2.66 µM
GI50 [17]: 11.6 µM
TGI [17]: 25.6 µM
GI50 [18]: 1.54 µM
TGI [18]: 3.13 µM
GI50 [19]: 1.78 µM
TGI [19]: 5.54 µM
GI50 [20]: 5.86 µM
TGI [20]: 17.4 µM
GI50 [21]: 2.31 µM
TGI [21]: 10.2 µM
GI50 [22]: 2.81 µM
TGI [22]: 10.1 µM
GI50 [23]: 12.6 µM
TGI [23]: 25.4 µM
GI50 [24]: 2.36 µM
TGI [24]: 5.59 µM
GI50 [25]: 2.07 µM
TGI [25]: 6.18 µM
GI50 [26]: 1.72 µM
TGI [26]: 3.4 µM
GI50 [27]: 4.85 µM
TGI [27]: 15.6 µM
GI50 [28]: 2.56 µM
TGI [28]: 12.2 µM
GI50 [29]: 7.78 µM
TGI [29]: 23.8 µM
GI50 [30]: 1.16 µM
TGI [30]: 4.28 µM
GI50 [31]: 8.11 µM
TGI [31]: 20.9 µM
GI50 [32]: 2.1 µM
TGI [32]: 5.59 µM
GI50 [33]: 3.21 µM
TGI [33]: 9.32 µM
GI50 [34]: 4.25 µM
TGI [34]: 16.3 µM
GI50 [35]: 2.16 µM
TGI [35]: 5.97 µM
GI50 [36]: 1.4 µM
TGI [36]: 3.28 µM
GI50 [37]: 2.96 µM
TGI [37]: 11.2 µM
GI50 [38]: 1.5 µM
TGI [38]: 3.07 µM
GI50 [39]: 2.53 µM
TGI [39]: 13.7 µM
GI50 [40]: 1.4 µM
TGI [40]: 3.48 µM
GI50 [41]: 3.31 µM
TGI [41]: 12.2 µM
GI50 [42]: 2.36 µM
TGI [42]: 10.8 µM
GI50 [43]: 0.964 µM
TGI [43]: 6.05 µM
GI50 [44]: 1.41 µM
TGI [44]: 2.83 µM
GI50 [45]: 9.03 µM
TGI [45]: 26.1 µM
GI50 [46]: 1.94 µM
TGI [46]: 5.61 µM
GI50 [47]: 2.55 µM
TGI [47]: 7.23 µM
GI50 [48]: 1.75 µM
TGI [48]: 11.4 µM
GI50 [49]: 12.6 µM
TGI [49]: 26.9 µM
GI50 [50]: 3.19 µM
TGI [50]: 13.4 µM
GI50 [51]: 1.93 µM
TGI [51]: 4.58 µM
GI50 [52]: 1.21 µM
TGI [52]: 2.82 µM
GI50 [53]: 1.79 µM
TGI [53]: 3.66 µM
GI50 [54]: 2.07 µM
TGI [54]: 5.4 µM
GI50 [55]: 2.82 µM
TGI [55]: 8.64 µM
GI50 [56]: 0.518 µM
TGI [56]: 1.21 µM
